Source: patent US10253081B2, “Glucagon analogues” (Zealand Pharma A/S, priority 2012, dated 2019)
*1 amine or outer side, *2 acyl side, *3 side chain or, on linkers, in order; H or OH if unused. Where a SMILES comes first, the peptide text is derived from it. Side-chain parts run from the residue outwards. [ ]: non-standard residue; d: D form. The star is where a group is joined. γGlu = O=C(O)[C@H](CCC(=O)[*:2])N[*:1]; Palmitoyl = CCCCCCCCCCCCCCCC(=O)*; Aib = CC(C)(N)C(=O)O

Tests used:
Assay type in all cases: cell-based
[1] = target: T1, endogenous GLP-1 receptors (Mus musculus, UniProt O35659); assay: Agonistic activity on endogenous GLP-1 receptor (cAMP, murine insulinoma cell line); settings: intracellular cAMP, 15 minutes at 26° C.; read-out: EC50 GLP-1R (murine insulinoma cells)
T1 construct: Agonistic activity of the test compounds on endogenous GLP-1 receptors; endogenous in cells
T1 sequence (O35659 22-463): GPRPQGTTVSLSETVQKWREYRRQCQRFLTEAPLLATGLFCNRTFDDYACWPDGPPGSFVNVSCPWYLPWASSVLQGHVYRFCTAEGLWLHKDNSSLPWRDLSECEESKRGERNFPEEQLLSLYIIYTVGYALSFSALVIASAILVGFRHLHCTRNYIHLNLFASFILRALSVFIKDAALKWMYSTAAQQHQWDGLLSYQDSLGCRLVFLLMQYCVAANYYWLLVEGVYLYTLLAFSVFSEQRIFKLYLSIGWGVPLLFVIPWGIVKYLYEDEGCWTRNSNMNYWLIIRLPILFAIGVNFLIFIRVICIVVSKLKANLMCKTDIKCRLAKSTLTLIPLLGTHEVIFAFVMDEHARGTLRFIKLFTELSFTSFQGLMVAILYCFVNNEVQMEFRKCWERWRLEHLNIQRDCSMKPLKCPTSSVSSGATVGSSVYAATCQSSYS
Protocol: Agonistic activity of the test compounds on endogenous GLP-1 receptors was determined using a murine insulinoma cell line. Intracellular cAMP was used an indicator of receptor activation.
Cells were cultured for 24 h at a density of 10,000 cells/well in a 384-well plate. Medium was removed and 10 μL KRBH buffer (NaCl 130 mM, KCl 3.6 mM, NaH2PO4 0.5 mM, MgSO4 0.5 mM, CaCl2) 1.5 mM) containing test compound or GLP-1 (at increasing concentrations from […] to 100 nM) or solvent control (0.1% (v/v) DMSO) was added to the wells for 15 minutes at a temperature of 26° C.
The cellular cAMP content is measured using the AlphaScreen cAMP Functional Assay Kit (Perkin Elmer). Measurement was performed using the Envision (PerkinElmer) according to manufacturer's recommendations.
All measurements were performed in quadruplicate.
Results were converted into cAMP concentrations using a cAMP standard curve prepared in KRBH buffer containing 0.1% (v/v) DMSO. The resulting cAMP curves were plotted as absolute cAMP concentrations (nM) over log (test compound concentration) and analyzed using the curve fitting program XLfit.
Parameters calculated to describe the both the potency as well as the agonistic activity of each test compound on the endogenous GLP-1 receptors were:
pEC50 (negative logarithmic value of EC50, a concentration resulting in a half-maximal elevation of cAMP levels, reflecting the potency of the test compound);
Percent control (% CTL)(% cAMP elevation for each test compound concentration normalized based on the GLP-1-induced maximum cAMP response (100% CTL)).

[2] = target: T2, endogenous glucagon receptor (Rattus norvegicus, UniProt P30082); assay: Agonistic activity on endogenous glucagon receptor (glycogen synthesis rate in primary rat hepatocytes); settings: inhibition of glycogen synthesis rate, 3 hours, read-out: EC50 GLP-1R Rat hepat.
T2 construct: Agonistic activity of the test compounds on endogenous glucagon receptor; endogenous in cells; host or cells: primary rat hepatocytes
Protocol: Agonistic activity of the test compounds on endogenous glucagon receptor was determined by measuring their effect on rate of glycogen synthesis in primary rat hepatocytes. Upon activation of the glucagon receptor, an inhibition of the glycogen synthesis rate is expected. Rate of glycogen synthesis was determined by counting the amount of radioactively labeled glucose incorporated into the cellular glycogen stores in a defined period of time.
Primary rat hepatocytes were cultured at a density of 40,000 cells/well in a 24-well plate for 24 hours at 37° C. and 5% CO2.
Medium was discarded and the cells washed with PBS. 180 μL of KRBH-based buffer containing 0.1% BSA and glucose at a concentration of 22.5 mM was then added to the wells, followed by test compound and 40 μCi/ml D-[U14C] glucose (20 μL each). Incubation was continued for 3 hours.
At the end of the incubation period, the incubation buffer was aspirated and cells washed once with ice-cold PBS before lysis by incubation for 30 min at room temperature with 100 μL 1 mol/l NaOH.
Cell lysates were transferred to 96-well filter plates and glycogen precipitated by incubating the filter-plates for 120 min at 4° C. followed by washing the filter plates 4 times with ice-cold ethanol (70%). The resulting precipitates were filtered to dryness and the amount of incorporated ^14C-glucose determined by using a Topcount scintillation counter according to manufacturer's recommendations.
Wells with vehicle controls (0.1% (v/v) DMSO in KRBH buffer) were included as reference for non-inhibited glycogen synthesis (100% CTL). Wells without added D-[U^14C] glucose were included as controls for non-specific background signal (subtracted from all values). Endogenous glucagon peptide was used as a positive control.
All treatments were performed at least in triplicates.
Parameters calculated to describe the both the potency as well as the agonistic activity of each test compound on the endogenous glucagon receptor are pEC50 and % CTL. % CTL is determined by calculating the percentage of CPM/well in the presence of the test compound compared to the CPM/well of the vehicle control after subtracting the background CPM/well: [CPM/well(basal)−CPM/well(sample)]*100/[CPM/well(basal)−CPM/well(control)]
An activator of the glucagon receptor will result in an inhibition of the glycogen synthesis rate and will give % CTL values between 0% CTL (complete inhibition) and 100% CTL (no observable inhibition).
The resulting activity curves were plotted as absolute counts (unit: cpm/sample) over log (test compound concentration) and analyzed using the curve fitting program XLfit.
pEC50 (negative logarithmic value of EC50) reflects the potency of the test compound.
The terms EC50 and pEC50 quoted in relation to GLP-1R activation could equally be regarded as IC50 and pIC50 in relation to glycogen synthesis.

[3] = target: T3, human glucagon-like peptide 1 receptor (GLP-1R) (Homo sapiens, UniProt P43220); assay: GLP-1 receptor efficacy assay (cAMP AlphaScreen, CHO cells); settings: Table 1B; for Ratio GLP-1/Glucagon: EC50 [GLP-1R]/EC50 [Glucagon-R]; for EC50: same protocol, different laboratory, read-out: EC50 hGLP-1R CHO-K1
T3 construct: expressed in transfected cells
Source text: (§1) The cDNA encoding either the human glucagon receptor (Glucagon-R) (primary accession number P47871) or the human glucagon-like peptide 1 receptor (GLP-1R) (primary accession number P43220) were synthesized and cloned into a mammalian expression vector containing a Zeocin resistance marker.
(§2) The mammalian expression vectors encoding the Glucagon-R or the GLP-1-R were transfected into Chinese hamster ovary (CHO) cells by the Attractene method method. Stably expressing clones were obtained by Zeocin selection (250 μg/mL) upon limited dilution of cells resistant to the selection pressure. Glucagon-R and GLP-1-R cell clones expressing were picked, propagated and tested in the Glucagon-R and GLP-1-R efficacy assays as described below. One Glucagon-R expressing clone and one GLP-1-R expressing clone were chosen for compound profiling.
(§3) CHO cells expressing the human Glucagon-R, or human GLP-1-R were seeded 24 hours prior to the assay at 30,000 cells per well in 96-well microtiter plates in culture in 100 μl growth medium. On the day of analysis, growth medium was removed and the cells were washed once with 200 μl of assay buffer (Krebs-Ringer-buffer—KRBH). The buffer was removed and the cells were incubated for 15 min at room temperature in 10 μl KRBH (KRBH+10 mM HEPES, 5 mM NaHCO3, 0.1% (V/V) BSA) with 0.1 mM IBMX in deionized water containing increasing concentrations of test peptides. The reaction was stopped by the addition of lysis buffer (0.1% w/v BSA, 5 mM HEPES, 0.3% v/v Tween-20). After cell lysis for 10 min at room temperature, lysates were transferred to 384-well plates and 10 μl of acceptor/donorbead mixture as contained in the AlphaScreen™ cAMP Functional Assay Kit was added. After one hour of incubation at room temperature in the dark, the cAMP content was determined applying the AlphaScreen™ cAMP Functional Assay Kit from Perkin-Elmer according to manufacturer instructions. EC50 and relative efficacies compared to reference compounds (glucagon and GLP-1) were calculated applying computer aided curve fitting. The GLP-1/glucagon ratio is calculated as defined earlier.

[4] = target: T4, human glucagon receptor (Glucagon-R) (Homo sapiens, UniProt P47871); assay: Glucagon receptor efficacy assay (cAMP AlphaScreen, CHO cells); settings: Table 1B; same protocol, different laboratory; read-out: EC50 hGCGR CHO-K1
T4 construct: expressed in transfected cells
Source text: as §1, §2, §3

T3 sequence (P43220 24-463): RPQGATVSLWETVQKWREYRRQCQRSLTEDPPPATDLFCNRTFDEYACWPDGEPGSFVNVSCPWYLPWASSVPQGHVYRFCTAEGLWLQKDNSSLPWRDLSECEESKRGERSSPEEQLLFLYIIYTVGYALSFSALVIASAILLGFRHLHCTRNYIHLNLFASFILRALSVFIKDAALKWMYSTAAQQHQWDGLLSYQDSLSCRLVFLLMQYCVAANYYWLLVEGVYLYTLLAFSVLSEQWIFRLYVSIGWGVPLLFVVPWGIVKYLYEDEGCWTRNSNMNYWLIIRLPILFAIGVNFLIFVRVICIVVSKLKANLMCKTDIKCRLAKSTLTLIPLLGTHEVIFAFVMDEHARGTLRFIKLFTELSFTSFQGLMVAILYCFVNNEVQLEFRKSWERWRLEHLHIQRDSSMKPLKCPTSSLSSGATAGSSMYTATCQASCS
T2 sequence (P30082 27-485): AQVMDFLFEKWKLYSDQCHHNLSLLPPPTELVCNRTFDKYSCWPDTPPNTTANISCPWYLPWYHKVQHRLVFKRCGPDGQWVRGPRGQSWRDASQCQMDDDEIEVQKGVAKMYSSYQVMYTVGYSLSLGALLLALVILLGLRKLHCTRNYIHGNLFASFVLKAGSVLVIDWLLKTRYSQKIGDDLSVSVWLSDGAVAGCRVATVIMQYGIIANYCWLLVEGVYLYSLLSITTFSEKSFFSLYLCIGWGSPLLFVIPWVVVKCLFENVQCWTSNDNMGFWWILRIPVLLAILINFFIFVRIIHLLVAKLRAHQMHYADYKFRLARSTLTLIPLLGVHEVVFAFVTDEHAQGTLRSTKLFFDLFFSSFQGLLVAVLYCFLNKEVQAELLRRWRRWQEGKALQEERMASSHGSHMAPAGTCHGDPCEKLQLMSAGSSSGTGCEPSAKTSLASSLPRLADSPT
T4 sequence (P47871 26-477): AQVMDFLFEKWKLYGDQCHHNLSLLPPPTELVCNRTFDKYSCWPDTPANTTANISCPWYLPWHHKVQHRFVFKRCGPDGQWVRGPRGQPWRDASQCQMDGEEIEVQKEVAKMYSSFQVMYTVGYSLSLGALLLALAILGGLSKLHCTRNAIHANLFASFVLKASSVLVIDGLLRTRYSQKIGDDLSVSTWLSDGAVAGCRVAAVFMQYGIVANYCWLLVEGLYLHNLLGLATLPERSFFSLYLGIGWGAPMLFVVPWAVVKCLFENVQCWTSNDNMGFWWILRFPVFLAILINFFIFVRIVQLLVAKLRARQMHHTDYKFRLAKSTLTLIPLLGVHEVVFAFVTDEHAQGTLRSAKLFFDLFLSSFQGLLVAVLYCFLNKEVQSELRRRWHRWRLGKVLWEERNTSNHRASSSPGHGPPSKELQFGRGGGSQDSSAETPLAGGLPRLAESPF

SMILES | EC50 [1] [nM] | EC50 [2] [nM] | Ratio GLP-1/Glucagon [3] | EC50 [3] [nM] | EC50 [4] [nM]
CCCCCCCCCCCCCCCC(=O)N[C@@H](CCC(=O)NCCCC[C@H](NC(=O)[C@H](CO)NC(=O)[C@H](CCC(=O)O)NC(=O)[C@H](CC(C)C)NC(=O)[C@H](Cc1ccc(O)cc1)NC(=O)[C@H](CCCCN)NC(=O)[C@H](CO)NC(=O)[C@H](Cc1ccc(O)cc1)NC(=O)[C@H](CC(=O)O)NC(=O)[C@H](CO)NC(=O)[C@@H](NC(=O)[C@H](Cc1ccccc1)NC(=O)[C@@H](NC(=O)CNC(=O)[C@H](Cc1c[nH]cn1)NC(=O)C(C)(C)NC(=O)[C@@H](N)Cc1c[nH]cn1)[C@@H](C)O)[C@@H](C)O)C(=O)N[C@@H](C)C(=O)N[C@@H](C)C(=O)N[C@@H](CCC(=O)O)C(=O)N[C@@H](CCC(=O)O)C(=O)N[C@@H](Cc1ccccc1)C(=O)N[C@H](C(=O)N[C@@H](CCC(=O)O)C(=O)N[C@@H](Cc1c[nH]c2ccccc12)C(=O)N[C@@H](CC(C)C)C(=O)N[C@@H](CCC(=O)O)C(=O)N[C@@H](CO)C(=O)N[C@@H](C)C(=O)O)[C@@H](C)CC)C(=O)O [Compound 17, H-H-Aib-HGTFTSDYSKYLES-K(Hexadecanoyl-isoGlu)-AAEEFIEWLESA-OH] (H-H[Aib]HGTFTSDYSKYLESK([γGlu-Palmitoyl])AAEEFIEWLESA-OH) | 0.89 | 0.18 | 4.6 | 0.23 | 0.05
CCCCCCCCCCCCCCCC(=O)N[C@@H](CCC(=O)NCCCC[C@H](NC(=O)[C@H](CCC(=O)O)NC(=O)[C@H](CCC(=O)O)NC(=O)[C@H](CC(C)C)NC(=O)[C@H](Cc1ccc(O)cc1)NC(=O)[C@H](CCCCN)NC(=O)[C@H](CO)NC(=O)[C@H](Cc1ccc(O)cc1)NC(=O)[C@H](CC(=O)O)NC(=O)[C@H](CO)NC(=O)[C@@H](NC(=O)[C@H](Cc1ccccc1)NC(=O)[C@@H](NC(=O)CNC(=O)[C@H](Cc1c[nH]cn1)NC(=O)[C@H](CO)NC(=O)[C@@H](N)Cc1c[nH]cn1)[C@@H](C)O)[C@@H](C)O)C(=O)N[C@@H](C)C(=O)N[C@@H](C)C(=O)N[C@@H](Cc1c[nH]cn1)C(=O)N[C@@H](CCC(=O)O)C(=O)N[C@@H](Cc1ccccc1)C(=O)N[C@H](C(=O)N[C@@H](CCC(=O)O)C(=O)N[C@@H](Cc1c[nH]c2ccccc12)C(=O)N[C@@H](CC(C)C)C(=O)N[C@@H](CCC(=O)O)C(=O)N[C@@H](CO)C(=O)N[C@@H](C)C(=O)O)[C@@H](C)CC)C(=O)O [Compound 18, H-HSHGTFTSDYSKYLEE-K(Hexadecanoyl-isoGlu)-AAHEFIEWLESA-OH] (H-HSHGTFTSDYSKYLEEK([γGlu-Palmitoyl])AAHEFIEWLESA-OH) | 0.99 | 0.18 | 6.2 | 0.87 | 0.14
CCCCCCCCCCCCCCCC(=O)N[C@@H](CCC(=O)NCCCC[C@H](NC(=O)[C@H](CCC(=O)O)NC(=O)[C@H](CCC(=O)O)NC(=O)[C@H](CC(C)C)NC(=O)[C@H](Cc1ccc(O)cc1)NC(=O)[C@H](CCCCN)NC(=O)[C@H](CO)NC(=O)[C@H](Cc1ccc(O)cc1)NC(=O)[C@H](CC(=O)O)NC(=O)[C@H](CO)NC(=O)[C@@H](NC(=O)[C@H](Cc1ccccc1)NC(=O)[C@@H](NC(=O)CNC(=O)[C@H](Cc1c[nH]cn1)NC(=O)C(C)(C)NC(=O)[C@@H](N)Cc1c[nH]cn1)[C@@H](C)O)[C@@H](C)O)C(=O)N[C@@H](C)C(=O)N[C@@H](C)C(=O)N[C@@H](Cc1c[nH]cn1)C(=O)N[C@@H](CCC(=O)O)C(=O)N[C@@H](Cc1ccccc1)C(=O)N[C@H](C(=O)N[C@@H](CCC(=O)O)C(=O)N[C@@H](Cc1c[nH]c2ccccc12)C(=O)N[C@@H](CC(C)C)C(=O)N[C@@H](CCC(=O)O)C(=O)N[C@@H](CO)C(=O)N[C@@H](C)C(N)=O)C(C)C)C(=O)O [Compound 19, H-H-Aib-HGTFTSDYSKYLEE-K(Hexadecanoyl-isoGlu)-AAHEFVEWLESA-NH2] (H-H[Aib]HGTFTSDYSKYLEEK([γGlu-Palmitoyl])AAHEFVEWLESA-NH2) | 0.33 | 0.06 | 3.38 | 0.27 | 0.08
